Assay results from patent US10179797B2, “Phosphinic peptide derivatives for use as MMP-12 inhibitors” (DSM IP ASSETS B.V., priority 2015, dated 2019).

Tests used:
[1] = tested on: Human skin; assay: Total dermal elastin after UV-irradiation of cultured human skin samples; conditions: concentration 100 [μm]; for Increase vs. untreated-UV: day 6, (Dermal elastin sample − Dermal Elastin UV)/Dermal Elastin UV * 100%; for Dermal elastin: topical twice a day, daily 45 J/cm^2 UVA, day 6, papillary dermis, non-UV treated sample = 100%
Protocol: Human skin from abdominal plastic surgery classified as “Intermediate” (ITA° angle=53°) has been used. The skin samples were cut in pieces of approx. 8×3 mm (ø×thickness) and cultured up to day 6 in an air-liquid interface in a perforated ring of stainless steel in contact with a culture medium (modified Williams'E medium), the culture medium was renewed every three days. Eight skin specimens were used for each treatment. Each test sample (4 μl) was topically applied twice a day, immediately after UV irradiation and renewed 4 hours later top of each piece after gentle cleaning of the surface with a cotton pad followed by covering with a 6 ømm delivery membrane, which procedure was repeated daily. The samples were irradiated daily with 800% of the Biological Effective Dose of daylight (BED; Del Bino et al, Pigment Cell research, 19, 2006) equal to a dose of 45 J/cm^2 UVA using an adopted BIO-SUN system (Vilber Lourmat). At day 6 twelve skin sections were immunostained with mouse monoclonal anti-Elastin antibody (Sigma cat#E4013). The papillary dermis is selected for the analysis. The evaluation has been performed by estimating both color intensity and distribution with IMAGE J (NIH) analysis software Two slides of each skin sample have been processed by image acquisition and related analysis (i.e. 12 images for each treatment). The score of the dermal Elastin of the non-UV treated sample was set to 100%.

[2] = target: T1, MMP-12 (Homo sapiens, UniProt P39900); assay: MMP-12 Fluorometric Drug Discovery Kit inhibition assay; type: biochemical; set-up: purchased Enzo Life Sciences Inc., Farmingdale, N.Y., USA; conditions: read-out: % Inhibition after 20 min
Source text: The MMP-12 inhibitor activity was quantified by fluorometric analysis using the MMP-12 Fluorometric Drug Discovery Kit (Enzo Life Sciences Inc., Farmingdale, N.Y., USA) according to the manufacturers' instructions.
Target sequence in this assay (P39900 106-263 limits assumed): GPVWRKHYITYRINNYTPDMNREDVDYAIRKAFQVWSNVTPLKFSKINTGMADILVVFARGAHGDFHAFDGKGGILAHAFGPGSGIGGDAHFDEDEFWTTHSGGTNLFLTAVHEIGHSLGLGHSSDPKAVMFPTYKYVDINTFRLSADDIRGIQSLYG

[3] = target: T1, MMP-12; assay: Inhibition of MMP-12 degradation of elastin fibers produced by human dermal fibroblasts; type: cell-based; conditions: MMP-12 200 U/ml, 2 hrs at 37° C.
Protocol: Human dermal fibroblasts were pre-cultured in DMEM, 10% FCS, 1% P/S for 48 hrs before starving them in DMEM, 0.2% FCS, 1% P/S for 24 hrs. To induce elastin fiber production TGFb1 (10 ng/ml) was added and incubated for 5 days. After incubation with TGFb1, medium was carefully discarded and cells were washed with assay buffer (HBSS, […] HEPES). In the meantime MMP-12 (200 U/ml) and compounds were mixed in assay buffer and allowed to interact for 30 min. This mixture was then added to the cells and incubated for 2 hrs at 37° C.
Cells were then fixed with ice-cold methanol for 5 min and rehydrated by PBS. Unspecific sites were blocked with 1% BSA in PBS for 1 h at room temperature. Elastin fibers were detected using a primary antibody against elastin and the first antibody was detected with AlexaFluor 488 conjugated secondary antibody. Finally, nuclei were counterstained with DAPI. Stained cells were analyzed with the Thermo Scientific ArrayScan XTI Live High Content Platform. 49 pictures per well were acquired with a 20× objective and as readout we used the area covered by the elastin fibers. % of inhibition of elastin fiber degradation was calculated the following way: % protection of elastin fiber network degradation=100−[(max area−min area)/(max area inhibitor area)*100] in which max area=area covered by elastin fibers of untreated control cells min area=area covered by elastin fibers of MMP12 treated cells inhibitor area=area covered by elastin fibers of MMP12 and inhibitor treated cells.
Target sequence in this assay (P39900 106-470, species assumed): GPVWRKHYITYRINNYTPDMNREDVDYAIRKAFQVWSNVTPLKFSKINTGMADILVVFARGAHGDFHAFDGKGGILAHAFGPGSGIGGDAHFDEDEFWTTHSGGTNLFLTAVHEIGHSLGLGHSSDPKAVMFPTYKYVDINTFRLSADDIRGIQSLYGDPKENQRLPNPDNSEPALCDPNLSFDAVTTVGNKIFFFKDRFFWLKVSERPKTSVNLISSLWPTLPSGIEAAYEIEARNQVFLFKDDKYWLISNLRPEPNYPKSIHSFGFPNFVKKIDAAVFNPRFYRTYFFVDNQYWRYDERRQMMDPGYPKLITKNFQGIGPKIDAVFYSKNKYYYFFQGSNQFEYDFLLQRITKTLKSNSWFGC

| Compound | inhibition at 10 µM [2] | inhibition at 0.5 µM [2] | inhibition at 1 µM [2] | other results |
| --- | --- | --- | --- | --- |
| O=C(NC(Cc1c[nH]c2ccccc12)C(=O)O)C(Cc1ccc(-c2ccccc2)cc1)CP(=O)(O)CCc1ccccc1.O=C(O)C(F)(F)F (stereo not drawn) [(I)-c, (3-([1,1′-biphenyl]-4-yl)-2-((hydroxy(phenethyl)phosphoryl)methyl)propanoyl)tryptophan compound with 2,2,2-trifluoroacetic acid (1:1)] | – | – | – | Increase vs. untreated-UV [1]: +52%; Dermal elastin [1]: 123% |
| NC(=O)C[C@H](NC(=O)[C@H](Cc1ccc(-c2ccccc2)cc1)CP(=O)(O)CCc1ccccc1)C(=O)O [(I)-O] | 88% | – | – | – |
| CC[C@H](NC(=O)[C@H](Cc1ccc(-c2ccccc2)cc1)CP(=O)(O)CCc1ccccc1)C(=O)OC(C)(C)C [(I)-P] | 88% | – | – | – |
| CC(NC(=O)C(Cc1ccc(-c2ccccc2)cc1)CP(=O)(O)CCc1ccccc1)C(=O)O (stereo not drawn) [(I)-m, (3-([1,1′-biphenyl]-4-yl)-2-((hydroxy(phenethyl)phosphoryl)methyl)propanoyl)alanine] | – | – | – | Increase vs. untreated-UV [1]: +30%; Dermal elastin [1]: 106% |
| CCC(C)C(NC(=O)C(Cc1ccc(-c2ccccc2)cc1)CP(=O)(O)CCc1ccccc1)C(=O)O (stereo not drawn) [(I)-e, 2-(3-([1,1′-biphenyl]-4-yl)-2-((hydroxy(phenethyl)phosphoryl)methyl)propanamido)-3-methylpentanoic acid] | – | – | – | % protection of elastin fiber network degradation ([3]; 0.05 μM): 12.44%; % protection of elastin fiber network degradation ([3]; 1 μM): 68.17%; % protection of elastin fiber network degradation ([3]; 20 μM): 83.73% |
| CCCC[C@H](NC(=O)[C@H](Cc1ccc(-c2ccccc2)cc1)CP(=O)(O)CCc1ccccc1)C(=O)OC [(I)-H] | 91% | 83% | 89% | – |
| COC(=O)C(C)(C)NC(=O)C(Cc1ccc(-c2ccccc2)cc1)CP(=O)(O)CCc1ccccc1 (stereo not drawn) [(I)-V, (2-([1,1′-biphenyl]-4-ylmethyl)-3-((1-methoxy-2-methyl-1-oxopropan-2-yl)amino)-3-oxopropyl)(phenethyl)phosphinic acid] | 61% | – | – | – |
| O=C(N[C@@H](Cc1ccc2ccccc2c1)C(=O)O)[C@@H](Cc1ccc(-c2ccccc2)cc1)CP(=O)(O)CCc1ccccc1 [(I)-G] | 91% | 78% | 85% | – |
| O=C(N[C@@H](Cc1c[nH]c2ccccc12)C(=O)O)[C@@H](Cc1ccc(-c2ccccc2)cc1)CP(=O)(O)CCc1ccccc1 [(I)-K] | 90% | 69% | 79% | – |
| O=C(O)CCCNC(=O)C(Cc1ccc(-c2ccccc2)cc1)CP(=O)(O)CCc1ccccc1 (stereo not drawn) [(I)-L] | 90% | 75% | 82% | – |
| CCC(C)[C@H](NC(=O)[C@H](Cc1ccc(-c2ccccc2)cc1)CP(=O)(O)CCc1ccccc1)C(=O)O (stereo partly drawn) [(I)-B] | 92% | 94% | 94% | – |
| COC(=O)[C@@H](NC(=O)[C@H](Cc1ccc(-c2ccccc2)cc1)CP(=O)(O)CCc1ccccc1)C1CCCCC1 [(I)-S, ((S)-2-([1,1′-biphenyl]-4-ylmethyl)-3-(((S)-1-cyclohexyl-2-methoxy-2-oxoethyl)amino)-3-oxopropyl)(phenethyl)phosphinic acid] | 82% | – | – | – |
| CC(C)C[C@H](NC(=O)[C@H](Cc1ccc(-c2ccccc2)cc1)CP(=O)(O)CCc1ccccc1)C(=O)OC(C)(C)C [(I)-F] | 91% | 73% | 82% | – |
| COC(=O)[C@H](Cc1csc2ccccc12)NC(=O)[C@H](Cc1ccc(-c2ccccc2)cc1)CP(=O)(O)CCc1ccccc1 [(I)-A] | 92% | 75% | 82% | – |
| C[C@H](NC(=O)[C@H](Cc1ccc(-c2ccccc2)cc1)CP(=O)(O)CCc1ccccc1)C(=O)O [(I)-J] | 90% | 93% | 94% | – |
| O=C(N[C@@H](Cc1ccc2ccccc2c1)C(=O)OCc1ccccc1)[C@H](Cc1ccc(-c2ccccc2)cc1)CP(=O)(O)CCc1ccccc1 [(I)-Q] | 83% | – | – | – |
| O=C(N[C@@H](Cc1csc2ccccc12)C(=O)O)[C@@H](Cc1ccc(-c2ccccc2)cc1)CP(=O)(O)CCc1ccccc1 [(I)-M] | 89% | 52% | 64% | – |
| O=C(N[C@@H](Cc1c[nH]c2ccccc12)C(=O)O)[C@H](Cc1ccc(-c2ccccc2)cc1)CP(=O)(O)CCc1ccccc1 [(I)-C] | 92% | 93% | 94% | – |
| CCCC[C@H](NC(=O)[C@@H](Cc1ccc(-c2ccccc2)cc1)CP(=O)(O)CCc1ccccc1)C(=O)O [(I)-N] | 89% | – | – | – |
| CC(C)(C)OC(=O)[C@H](Cc1cn(C(=O)OC(C)(C)C)c2ccccc12)NC(=O)C(Cc1ccc(-c2ccccc2)cc1)CP(=O)(O)CCc1ccccc1 (stereo partly drawn) [(I)-R] | 82% | – | – | – |
| COC(=O)[C@H](CCNC(=O)OC(C)(C)C)NC(=O)[C@@H](Cc1ccc(-c2ccccc2)cc1)CP(=O)(O)CCc1ccccc1 [(I)-D] | 91% | 85% | 90% | – |
| CCCCC(NC(=O)C(Cc1ccc(-c2ccccc2)cc1)CP(=O)(O)CCc1ccccc1)C(=O)O (stereo not drawn) [(I)-k, 2-(3-([1,1′-biphenyl]-4-yl)-2-((hydroxy(phenethyl)phosphoryl)methyl)propanamido)hexanoic acid] | – | – | – | Increase vs. untreated-UV [1]: +54%; Dermal elastin [1]: 125% |
| CC[C@@H](C)[C@H](NC(=O)[C@@H](Cc1ccc(-c2ccccc2)cc1)CP(=O)(O)CCc1ccccc1)C(=O)OC(C)(C)C [(I)-T, ((R)-2-([1,1′-biphenyl]-4-ylmethyl)-3-(((2S,3R)-1-(tert-butoxy)-3-methyl-1-oxopentan-2-yl)amino)-3-oxopropyl)(phenethyl)phosphinic acid] | 75% | – | – | – |
| CC[C@@H](C)[C@H](NC(=O)[C@H](Cc1ccc(-c2ccccc2)cc1)CP(=O)(O)CCc1ccccc1)C(=O)OC(C)(C)C [(I)-U, ((S)-2-([1,1′-biphenyl]-4-ylmethyl)-3-(((2S,3R)-1-(tert-butoxy)-3-methyl-1-oxopentan-2-yl)amino)-3-oxopropyl)(phenethyl)phosphinic acid] | 72% | – | – | – |
| NC(=O)C[C@H](NC(=O)[C@@H](Cc1ccc(-c2ccccc2)cc1)CP(=O)(O)CCc1ccccc1)C(=O)O [(I)-I] | 90% | 84% | 89% | – |
